These results are taken from article PMC3644560 (Journal of the American Chemical Society, 2013).

Test [1] concerns Aquifex aeolicus IspH. To be noted: Aquifex aeolicus enzyme, DT-reduced MV ref 26; cited from earlier work.
For test [2], the target named is T1, E. coli IspH (Escherichia coli, UniProt P62623). Put plainly: Spectrophotometric IspH assay. The settings on record: for substrate for IspH (NADPH consumption at 340 nm): 200 μM compound, IspH 0.5 μM, anaerobic, pH 8. The class given is biochemical.
The target of test [3] is T1, E. coli IspH. It counts as biochemical.
Test [4] has as its target T1, E. coli IspH. Put plainly: IspH inhibition assay using [3-14C]HMBPP and the NADPH/FpR1/FldA reducing system. The class given is biochemical. To be noted: steady-state studies with [3-14C]HMBPP and NADPH/FpR1/FldA.
The mark [5] stands for this setting: fit of kapp vs [AMBPP] to Eqn 2, mechanism A, pH 8, 37 °C.

T1 sequence (P62623 whole entry): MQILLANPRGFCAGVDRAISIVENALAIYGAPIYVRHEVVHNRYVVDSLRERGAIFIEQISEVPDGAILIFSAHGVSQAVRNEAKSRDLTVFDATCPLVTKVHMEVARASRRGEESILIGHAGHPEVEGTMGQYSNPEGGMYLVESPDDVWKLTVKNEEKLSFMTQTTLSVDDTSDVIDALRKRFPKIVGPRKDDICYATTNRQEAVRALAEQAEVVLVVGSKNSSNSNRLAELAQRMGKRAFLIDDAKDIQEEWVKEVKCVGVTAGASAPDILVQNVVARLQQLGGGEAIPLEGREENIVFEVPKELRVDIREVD

By IC50 is commonly meant the concentration that inhibits the measured activity by half. `C#CCCOP(=O)(O)OP(=O)(O)O` [3-butynyl diphosphate]: the IC50 in test [1] is 450 nM.

The term Ki denotes a measure of affinity in units of concentration, obtained from inhibition or displacement. A low value points to higher affinity. `C/C(=C\COP(=O)(O)OP(=O)(O)O)CN.N.N` [AMBPP, (E)-4-Amino-3-methylbut-2-enyl 1-diphosphate bis ammonium salt]: in test [2], the inhibition constant (Ki) was 54 ± 19 nM and the “substrate for IspH (NADPH consumption at 340 nm)” value is listed as “not substrates for IspH”. In test [2] (Figures S5 and S6), the “effect of pH on inhibition constant and rate of binding to IspH” value is “decrease as pH increases”. Further, in test [2] (setting [5]), the “k3 (rate constant of formation of the EI complex)” value was 41000 M⁻¹ s⁻¹ and the “k4 (rate constant of dissociation of the EI complex)” value came to 0.0022 s⁻¹. For the same compound, the IC50 in test [3] worked out at 150 ± 20 nM. The mode of inhibition result in test [4] is reported as “competitive inhibition was confirmed”.

With `C/C(=C\COP(=O)(O)OP(=O)(O)O)CS.N.N` [TMBPP, (E)-4-Mercapto-3-methyl-but-2-en-1-yl diphosphate bis ammonium salt], the “substrate for IspH (NADPH consumption at 340 nm)” value in test [2] is reported as “not substrates for IspH”. This compound also came in with a concentration for half-maximal inhibition (IC50) in test [3] of 210 ± 10 nM. Moreover, the mode of inhibition result in test [4] is “competitive inhibitor”.
